Reference: patent US11020399B2, “Intermediates useful in the synthesis of compounds as modulators of protein kinases” (Rhizen Pharmaceuticals SA, priority 2011, dated 2021)

Assays:
PI3kα = PI3kα (Homo sapiens, UniProt P42336); assay: Fluorescent (HTRF) determination of PI3 kinase enzyme activity, PI3Kα; format: biochemical; conditions: 1 uM
Method in brief: (§1)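 Compounds tested at 1 μM on α and β isoforms and at 0.3 or 0.1 μM on γ and δ, with percent inhibition from blank and enzyme controls, plus IC50 fits. Room-temperature reaction: 10 min enzyme–compound preincubation in MgCl2/DTT buffer with 1.38 μM PIP2, then 30 min after 400 μM ATP addition; PIP3 read by HTRF (665/620 nm).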

PI3kβ = PI3kβ (Homo sapiens, UniProt P42338); assay: Fluorescent (HTRF) determination of PI3 kinase enzyme activity, PI3Kβ; format: biochemical; conditions: 1 uM
Chain of PI3kβ (P42338 whole entry): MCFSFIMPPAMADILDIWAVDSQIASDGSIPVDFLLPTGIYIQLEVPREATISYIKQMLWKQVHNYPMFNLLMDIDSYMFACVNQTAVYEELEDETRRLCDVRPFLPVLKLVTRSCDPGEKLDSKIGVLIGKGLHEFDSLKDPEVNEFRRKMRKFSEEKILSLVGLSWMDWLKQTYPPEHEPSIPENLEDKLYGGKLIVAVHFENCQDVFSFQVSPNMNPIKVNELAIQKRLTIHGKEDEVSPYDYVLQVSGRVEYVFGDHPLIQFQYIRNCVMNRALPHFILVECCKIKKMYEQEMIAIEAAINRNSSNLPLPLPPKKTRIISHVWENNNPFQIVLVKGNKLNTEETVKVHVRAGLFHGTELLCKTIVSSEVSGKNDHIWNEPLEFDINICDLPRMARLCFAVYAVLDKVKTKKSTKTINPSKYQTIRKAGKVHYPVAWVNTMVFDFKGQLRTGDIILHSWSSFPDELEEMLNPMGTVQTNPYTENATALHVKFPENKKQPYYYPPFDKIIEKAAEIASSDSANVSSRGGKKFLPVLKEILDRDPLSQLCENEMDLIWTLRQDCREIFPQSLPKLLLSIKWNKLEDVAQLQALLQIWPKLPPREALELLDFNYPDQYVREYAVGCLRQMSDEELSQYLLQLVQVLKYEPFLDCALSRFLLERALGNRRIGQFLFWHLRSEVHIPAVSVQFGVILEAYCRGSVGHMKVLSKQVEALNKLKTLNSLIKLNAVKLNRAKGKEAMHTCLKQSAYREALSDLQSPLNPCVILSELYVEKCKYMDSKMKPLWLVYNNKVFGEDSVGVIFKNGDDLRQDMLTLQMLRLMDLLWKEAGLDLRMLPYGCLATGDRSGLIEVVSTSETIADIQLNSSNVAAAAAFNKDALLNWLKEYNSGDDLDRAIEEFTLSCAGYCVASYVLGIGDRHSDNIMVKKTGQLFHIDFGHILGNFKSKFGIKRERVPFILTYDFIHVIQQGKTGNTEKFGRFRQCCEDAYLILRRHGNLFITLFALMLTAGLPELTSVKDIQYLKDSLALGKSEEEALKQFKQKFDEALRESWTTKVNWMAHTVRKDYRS
Chain of PI3kβ (P27986 whole entry partner): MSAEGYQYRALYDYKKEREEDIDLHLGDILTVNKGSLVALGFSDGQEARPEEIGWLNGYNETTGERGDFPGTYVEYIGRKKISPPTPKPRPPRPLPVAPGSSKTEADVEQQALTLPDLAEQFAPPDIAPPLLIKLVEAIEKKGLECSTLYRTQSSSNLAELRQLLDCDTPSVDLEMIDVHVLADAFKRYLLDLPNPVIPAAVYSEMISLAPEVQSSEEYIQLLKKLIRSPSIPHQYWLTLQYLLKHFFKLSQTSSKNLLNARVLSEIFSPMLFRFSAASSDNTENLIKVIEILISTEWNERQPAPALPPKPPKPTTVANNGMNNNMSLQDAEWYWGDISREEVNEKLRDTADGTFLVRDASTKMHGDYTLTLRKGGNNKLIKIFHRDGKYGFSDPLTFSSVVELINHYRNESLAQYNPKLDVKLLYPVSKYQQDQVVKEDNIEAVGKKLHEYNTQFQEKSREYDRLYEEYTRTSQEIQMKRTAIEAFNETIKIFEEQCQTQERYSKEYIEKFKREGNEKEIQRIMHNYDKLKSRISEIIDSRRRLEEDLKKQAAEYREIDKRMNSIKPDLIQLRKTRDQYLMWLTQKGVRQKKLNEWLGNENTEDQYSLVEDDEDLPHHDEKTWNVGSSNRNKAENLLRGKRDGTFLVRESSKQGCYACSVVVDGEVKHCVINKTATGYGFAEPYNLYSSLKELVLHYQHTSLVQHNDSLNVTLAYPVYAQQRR
Method in brief: as §1

PI3kγ = PI3kγ (Homo sapiens, UniProt P48736); assay: Fluorescent (HTRF) determination of PI3 kinase enzyme activity, PI3Kγ; format: biochemical; conditions: 100 nM (Examples 60-137)
Chain of PI3kγ (P48736 whole entry): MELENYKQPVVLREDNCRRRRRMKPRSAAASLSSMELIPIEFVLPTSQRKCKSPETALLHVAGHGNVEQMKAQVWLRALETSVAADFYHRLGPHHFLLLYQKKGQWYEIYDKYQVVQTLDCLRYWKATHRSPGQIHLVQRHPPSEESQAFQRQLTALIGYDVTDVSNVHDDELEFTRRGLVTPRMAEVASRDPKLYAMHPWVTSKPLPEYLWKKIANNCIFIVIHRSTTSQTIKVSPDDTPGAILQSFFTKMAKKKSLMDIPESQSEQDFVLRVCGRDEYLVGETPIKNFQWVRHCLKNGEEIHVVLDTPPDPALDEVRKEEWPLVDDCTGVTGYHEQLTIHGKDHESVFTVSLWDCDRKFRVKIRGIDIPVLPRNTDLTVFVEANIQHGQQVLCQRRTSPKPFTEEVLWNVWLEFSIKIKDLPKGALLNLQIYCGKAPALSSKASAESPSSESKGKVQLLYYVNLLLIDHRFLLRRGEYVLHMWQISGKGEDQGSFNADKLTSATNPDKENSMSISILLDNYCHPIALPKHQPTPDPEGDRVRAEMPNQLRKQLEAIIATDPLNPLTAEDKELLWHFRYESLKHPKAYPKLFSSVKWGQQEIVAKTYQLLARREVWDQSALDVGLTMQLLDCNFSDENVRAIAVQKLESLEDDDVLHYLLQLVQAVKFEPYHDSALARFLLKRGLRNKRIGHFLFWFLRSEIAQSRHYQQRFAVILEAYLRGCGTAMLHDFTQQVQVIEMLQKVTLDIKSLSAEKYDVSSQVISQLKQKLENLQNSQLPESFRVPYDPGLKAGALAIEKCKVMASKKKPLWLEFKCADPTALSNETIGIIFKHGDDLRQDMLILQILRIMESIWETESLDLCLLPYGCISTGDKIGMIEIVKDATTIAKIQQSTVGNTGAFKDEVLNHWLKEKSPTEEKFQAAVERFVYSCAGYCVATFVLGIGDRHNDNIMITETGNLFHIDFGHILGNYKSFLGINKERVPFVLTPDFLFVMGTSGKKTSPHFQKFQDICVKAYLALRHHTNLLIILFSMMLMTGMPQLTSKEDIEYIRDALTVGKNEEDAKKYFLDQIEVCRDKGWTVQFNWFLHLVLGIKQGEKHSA
Method in brief: as §1

PI3kδ = PI3kδ (Homo sapiens, UniProt O00329); assay: Fluorescent (HTRF) determination of PI3 kinase enzyme activity, PI3Kδ; format: biochemical
Chain of PI3kδ (O00329 whole entry): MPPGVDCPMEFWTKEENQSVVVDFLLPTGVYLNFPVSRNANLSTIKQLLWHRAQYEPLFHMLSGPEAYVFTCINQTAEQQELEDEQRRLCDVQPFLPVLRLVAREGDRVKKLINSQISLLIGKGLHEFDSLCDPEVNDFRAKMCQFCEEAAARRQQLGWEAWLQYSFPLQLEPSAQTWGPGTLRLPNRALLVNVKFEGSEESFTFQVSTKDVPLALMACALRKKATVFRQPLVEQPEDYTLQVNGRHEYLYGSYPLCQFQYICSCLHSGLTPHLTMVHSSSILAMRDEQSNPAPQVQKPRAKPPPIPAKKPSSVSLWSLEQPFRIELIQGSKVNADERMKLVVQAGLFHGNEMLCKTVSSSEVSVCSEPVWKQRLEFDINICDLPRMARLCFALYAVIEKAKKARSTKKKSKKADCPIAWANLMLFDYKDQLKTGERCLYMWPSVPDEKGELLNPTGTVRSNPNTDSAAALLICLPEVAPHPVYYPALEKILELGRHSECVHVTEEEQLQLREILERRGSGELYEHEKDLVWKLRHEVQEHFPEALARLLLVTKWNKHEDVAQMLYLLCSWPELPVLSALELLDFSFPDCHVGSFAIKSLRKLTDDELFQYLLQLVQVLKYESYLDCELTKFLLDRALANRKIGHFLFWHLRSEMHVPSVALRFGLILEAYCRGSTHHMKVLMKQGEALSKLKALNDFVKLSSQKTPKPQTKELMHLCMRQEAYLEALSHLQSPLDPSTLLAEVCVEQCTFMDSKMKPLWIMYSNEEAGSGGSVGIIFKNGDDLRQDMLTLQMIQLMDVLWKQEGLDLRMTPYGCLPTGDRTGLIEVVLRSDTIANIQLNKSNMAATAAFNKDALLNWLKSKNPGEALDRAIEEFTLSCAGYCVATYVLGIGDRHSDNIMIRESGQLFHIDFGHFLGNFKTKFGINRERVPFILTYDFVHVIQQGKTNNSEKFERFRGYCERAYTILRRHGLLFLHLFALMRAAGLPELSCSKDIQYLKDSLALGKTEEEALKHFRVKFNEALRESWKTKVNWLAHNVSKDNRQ
Chain of PI3kδ (P27986 whole entry partner): as the sequence (P27986 whole entry partner) above
Method in brief: as §1

Chain of PI3kα (P42336 whole entry, canonical isoform): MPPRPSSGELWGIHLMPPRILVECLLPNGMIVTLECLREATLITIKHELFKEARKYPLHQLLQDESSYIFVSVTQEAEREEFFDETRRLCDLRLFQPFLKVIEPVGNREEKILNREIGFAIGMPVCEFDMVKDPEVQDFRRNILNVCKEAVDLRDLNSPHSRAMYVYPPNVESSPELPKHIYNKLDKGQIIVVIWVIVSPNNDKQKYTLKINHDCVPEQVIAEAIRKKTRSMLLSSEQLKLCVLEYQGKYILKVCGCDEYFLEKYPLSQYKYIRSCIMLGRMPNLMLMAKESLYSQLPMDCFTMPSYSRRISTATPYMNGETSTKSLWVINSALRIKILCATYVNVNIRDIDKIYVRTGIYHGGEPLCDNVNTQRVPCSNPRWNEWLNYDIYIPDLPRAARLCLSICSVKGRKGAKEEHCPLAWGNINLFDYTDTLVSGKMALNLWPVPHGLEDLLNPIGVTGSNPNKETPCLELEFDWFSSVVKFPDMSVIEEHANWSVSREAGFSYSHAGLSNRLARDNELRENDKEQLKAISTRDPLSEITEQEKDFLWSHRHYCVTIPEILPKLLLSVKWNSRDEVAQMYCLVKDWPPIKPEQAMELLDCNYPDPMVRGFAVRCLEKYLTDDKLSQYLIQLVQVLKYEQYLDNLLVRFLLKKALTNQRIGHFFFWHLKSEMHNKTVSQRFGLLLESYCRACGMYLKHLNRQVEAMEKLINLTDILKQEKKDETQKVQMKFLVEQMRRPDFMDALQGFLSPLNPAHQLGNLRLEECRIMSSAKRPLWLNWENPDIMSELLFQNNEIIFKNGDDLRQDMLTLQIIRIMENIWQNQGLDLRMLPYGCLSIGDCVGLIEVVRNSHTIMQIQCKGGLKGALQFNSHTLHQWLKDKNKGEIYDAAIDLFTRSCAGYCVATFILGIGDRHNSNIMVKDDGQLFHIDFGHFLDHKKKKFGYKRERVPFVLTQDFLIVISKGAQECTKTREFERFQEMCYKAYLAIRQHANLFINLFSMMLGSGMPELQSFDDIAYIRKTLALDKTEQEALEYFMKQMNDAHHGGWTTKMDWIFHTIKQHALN
Chain of PI3kα (P27986 whole entry partner, canonical isoform): as the sequence (P27986 whole entry partner) above

inhibition at 1 µM (PI3kα) [%] | inhibition at 1 µM (PI3kβ) [%] | inhibition at 0.1 µM (PI3kγ) [%] | inhibition at 0.1 µM (PI3kδ; 100 nM (Examples 60-137)) [%] | melting point [°C] | % inhibition (PI3kγ) 100 nM (PI3kγ; 0.1 µM) | % inhibition (PI3kδ) 100 nM (PI3kδ; 100 nM (Examples 60-137), 0.1 µM) | IC50 (PI3kδ) [nM] | SMILES
25 to 50 | 25 to 50 | 25 to 50 | 25 to 50 | 220 to 223 |  |  |  | CC(=O)Nc1ccc(-c2nn(C(C)c3oc4cccc(F)c4c(=O)c3-c3cccc(F)c3)c3ncnc(N)c23)cc1F (stereo not drawn) [Example 82, N-(4-(4-amino-1-(1-(5-fluoro-3-(3-fluorophenyl)-4-oxo-4H-chromen-2-yl)ethyl)-1H-pyrazolo[3,4-d]pyrimidin-3-yl)-2-fluorophenyl)acetamide]
0 to 25 | 25 to 50 |  |  | 116 to 119 | C (C=>25 to 50%) | C (C=>25 to 50%) |  | CC(C)Oc1ccc(-c2nn(C(C)c3oc4cccc(F)c4c(=O)c3-c3cccc(F)c3)c3ncnc(N4CCOCC4)c23)cc1F (stereo not drawn) [Example 85, 5-fluoro-2-(1-(3-(3-fluoro-4-isopropoxyphenyl)-4-morpholino-1H-pyrazolo[3,4-d]pyrimidin-1-yl)ethyl)-3-(3-fluorophenyl)-4H-chromen-4-one]
25 to 50 | 50 to 75 | 0 to 25 | 50 to 75 | 168 to 170 |  |  | 100 to 300 | CC(C)C(=O)Nc1ccc(-c2nn(C(C)c3oc4cccc(F)c4c(=O)c3-c3cccc(F)c3)c3ncnc(N4CCOCC4)c23)cc1F (stereo not drawn) [Example 87, N-(2-fluoro-4-(1-(1-(5-fluoro-3-(3-fluorophenyl)-4-oxo-4H-chromen-2-yl)ethyl)-4-morpholino-1H-pyrazolo[3,4-d]pyrimidin-3-yl)phenyl)isobutyramide]
50 to 75 | 0 to 25 | 50 to 75 | 50 to 75 | 183 to 186 |  |  |  | Cc1n[nH]c2cc(-c3nn(C(C)c4oc5cccc(F)c5c(=O)c4-c4cccc(F)c4)c4ncnc(N5CCOCC5)c34)ccc12 (stereo not drawn) [Example 112, 5-fluoro-3-(3-fluorophenyl)-2-(1-(3-(3-methyl-1H-indazol-6-yl)-4-morpholino-1H-pyrazolo[3,4-d]pyrimidin-1-yl)ethyl)-4H-chromen-4-one]
25 to 50 | 25 to 50 | 50 to 75 | 0 to 25 | 211 to 214 |  |  |  | CC(C)Oc1ccc(-c2nn(C(C)c3oc4cccc(N5CCOCC5)c4c(=O)c3-c3ccccc3)c3ncnc(N)c23)cc1F (stereo not drawn) [Example 121, 2-(1-(4-amino-3-(3-fluoro-4-isopropoxyphenyl)-1H-pyrazolo[3,4-d]pyrimidin-1-yl)ethyl)-5-morpholino-3-phenyl-4H-chromen-4-one]
0 to 25 | 25 to 50 | 0 to 25 | 50 to 75 | 293 to 296 |  |  |  | CC(c1oc2cccc(F)c2c(=O)c1-c1cccc(F)c1)n1nc(-c2ccc3c(c2)CNC3=O)c2c(N)ncnc21 (stereo not drawn) [Example 123, 5-(4-amino-1-(1-(5-fluoro-3-(3-fluorophenyl)-4-oxo-4H-chromen-2-yl)ethyl)-1H-pyrazolo[3,4-d]pyrimidin-3-yl)isoindolin-1-one]
25 to 50 | 0 to 25 | 25 to 50 | 25 to 50 | 203 to 205 |  |  |  | CC(Nc1ncnc2[nH]cnc12)c1oc2cccc(F)c2c(=O)c1-c1ccccc1F (stereo not drawn) [Example 131, 2-(1-(9H-purin-6-ylamino)ethyl)-5-fluoro-3-(2-fluorophenyl)-4H-chromen-4-one]
